Test results taken from US8809233B2, “Ternary herbicidal compositions comprising aminopyralid and imazamox” (BASF SE, priority 2008, dated 2014).
Where two headings read alike, the source gives them in different places.

Tests used:
Assay type in all cases: in vivo
Papaver rhoeas (PAPRH) = test: greenhouse post-emergence herbicidal activity on PAPRH
Protocol: (§1) The test plants have been seeded, separately for each species, in plastic containers in sandy loamy soil containing 5% of organic matter.
(§2) For the post emergence treatment, the plants were first grown to the 2 leaf station (GS 12). Here, the herbicidal compositions were suspended or emulsified in water as distribution medium and sprayed using finely distributing nozzels.
(§3) The plants have been cultivated due to there individual requirements at 10-25° C. and 20-35° C. The plants were irrigated due to there necessity.
(§4) The respective herbicides A and/or safener were formulated as 10% by weight strength suspension concentrate and introduced to the spray liquor with the amount of solvent system used for applying the active compound. Herbicide B and/or safener were used as commercially available formulations and introduced to the spray liquor with the amount of solvent system used for applying the active compound. In the examples, the solvent used was water.
(§5) In the following experiments, the herbicidal activity for the individual herbicide compounds (solo and mixture applications), the herbicidal succession was assessed 14 days after treatment (DAT).
(§6) The evaluation for the damage on undesired weeds caused by the chemical compositions was carried out using a scale from 0 to 100%, compared to the untreated control plants. Here, 0 means no damage and 100 means complete destruction of the plants.
(§7) The value E, which is to be expected if the activity of the individual compounds is just additive, was calculated using the method of S. R. Colby (1967) “Calculating synergistic and antagonistic responses of herbicide combinations”, weeds 15, p. 22ff.
(§8) [formula] where: X=effect in percent using herbicide A at an application rate a; Y=effect in percent using herbicide B at an application rate b; Z=effect in percent using herbicide C at an application rate c; E=expected effect (in %) of A+B+C at application rates a+b+c
(§9) Tables 1 to 2 relate to the herbicidal activity, in greenhouse trials, of the individual actives and the combination in post-emergence application 14 DAT.

[1] = test system: Mercurialis annua (MERAN); test: greenhouse post-emergence herbicidal activity on MERAN
Protocol: as §1, §2, §3, §4, §5, §6, §7, §8, §9

[2] = test system: Matricaria inodora (MATIN); test: greenhouse post-emergence herbicidal activity on MATIN; conditions: Tripleurospermum inodorum
Protocol: as §1, §2, §3, §4, §5, §6, §7, §8, §9

Thlaspi arvense (THLAR) = test: greenhouse post-emergence herbicidal activity on THLAR
Protocol: as §1, §2, §3, §4, §5, §6, §7, §8, §9

[3] = test system: Matricaria chamomilla (MATCH); test: greenhouse post-emergence herbicidal activity on MATCH; conditions: 672 h, read-out: % activity 28 DAT
Protocol: as §1, §2, §3
as §4, with “water. […]” for “water.”
The evaluation for the damage on undesired weeds caused by the chemical compositions was carried out using a scale from 0 to 100%, compared to the untreated control plants. […]
The value E, which is to be expected if the activity of the individual compounds is just additive, was calculated using the method of S. R. Colby (1967) “Calculating synergistic and antagonistic responses of herbicide combinations”, weeds 15, p. […]

[4] = test system: Capsella bursa-pasturis (CAPBP); test: greenhouse post-emergence herbicidal activity on CAPBP
Protocol: as §1, §2, §3, §4, §5, §6, §7, §8, §9

Viola arvensis (VIOAR) = test: greenhouse post-emergence herbicidal activity on VIOAR
Protocol: as §1, §2, §3, §4, §5, §6, §7, §8, §9

SMILES: Nc1cc(Cl)nc(C(=O)O)c1Cl [aminopyralid, 4-amino-3,6-dichloropyridine-2-carboxylic acid]
- inhibition at 2.5 g/ha (Papaver rhoeas (PAPRH); read-out: % activity): 0%
- inhibition at 5 g/ha (Papaver rhoeas (PAPRH); read-out: % activity): 15%
- inhibition at 2.5 g/ha ([1]; read-out: % activity): 70%
- inhibition at 2.5 g/ha ([2]; read-out: % activity): 35%
- inhibition at 5 g/ha ([2]; read-out: % activity): 60%
- inhibition at 2.5 g/ha (Thlaspi arvense (THLAR); read-out: % activity): 30%
- inhibition at 2.5 g/ha [3]: 40%
- inhibition at 5 g/ha [3]: 75%
- inhibition at 2.5 g/ha ([4]; read-out: % activity): 0%
- inhibition at 5 g/ha ([4]; read-out: % activity): 10%
- inhibition at 10 g/ha ([4]; read-out: % activity): 25%
- inhibition at 2.5 g/ha (Viola arvensis (VIOAR); read-out: % activity): 10%
- inhibition at 5 g/ha (Viola arvensis (VIOAR); read-out: % activity): 10%

SMILES: O=C(O)c1nc(Cl)ccc1Cl [clopyralid]
- inhibition at 30 g/ha ([4]; Table 2, CAPBP, solo application, use rate 30 g ai/ha): 0%
- inhibition at 120 g/ha ([4]; Table 2, CAPBP, solo application, use rate 120 g ai/ha): 10%

SMILES: COCc1cnc(C2=NC(C)(C(C)C)C(=O)N2)c(C(=O)O)c1 (racemic) [imazamox, 2-[(RS)-4-isopropyl-4-methyl-5-oxo-2-imidazolin-2-yl]-5-methoxymethylnicotinic acid]
- inhibition at 20 g/ha (Papaver rhoeas (PAPRH); PAPRH, solo application, use rate 20 g ai/ha): 35%
- inhibition at 20 g/ha ([1]; MERAN, solo application, use rate 20 g ai/ha): 90%
- inhibition at 20 g/ha ([2]; MATIN, solo application, use rate 20 g ai/ha): 65%
- inhibition at 20 g/ha (Thlaspi arvense (THLAR); THLAR, solo application, use rate 20 g ai/ha): 90%
- inhibition at 20 g/ha ([4]; CAPBP, solo application, use rate 20 g ai/ha): 90%
- inhibition at 10 g/ha ([4]; Table 2, CAPBP, solo application, use rate 10 g ai/ha (imazamox), read-out: % activity): 80%
- inhibition at 20 g/ha (Viola arvensis (VIOAR); VIOAR, solo application, use rate 20 g ai/ha): 0%

SMILES: Cc1cccc(C)c1N(Cn1cccn1)C(=O)CCl [metazachlor]
- inhibition at 187 g/ha (Papaver rhoeas (PAPRH); PAPRH, solo application, use rate 187 g ai/ha): 30%
- inhibition at 187 g/ha ([1]; MERAN, solo application, use rate 187 g ai/ha): 15%
- inhibition at 187 g/ha ([2]; MATIN, solo application, use rate 187 g ai/ha): 60%
- inhibition at 187 g/ha (Thlaspi arvense (THLAR); THLAR, solo application, use rate 187 g ai/ha): 0%
- inhibition at 187 g/ha ([4]; CAPBP, solo application, use rate 187 g ai/ha): 0%
- inhibition at 187 g/ha (Viola arvensis (VIOAR); VIOAR, solo application, use rate 187 g ai/ha): 15%
